Data published in PMC5218480 (PLoS ONE, 2017).

System: MV-4-11 cells
Experiment: Gene expression microarray analysis (Affymetrix PrimeView) and GSEA
Type: cell-based, human
Set-up: RFU PODN (11730768_x_at) / Fold change /veh PODN (11730768_x_at) / RFU LINC00158 (11744669_a_at) / Fold change /veh LINC00158 (11744669_a_at) / RFU DUSP10 (11751237_a_at) / Fold change /veh DUSP10 (11751237_a_at) / RFU ID3 (11757404_x_at) / Fold change /veh ID3 (11757404_x_at) / RFU PLEKHG5 (11737974_s_at) / Fold change /veh PLEKHG5 (11737974_s_at) / RFU LRRC4B (11730491_at) / Fold change /veh LRRC4B (11730491_at) / RFU GIMAP4 (11747438_a_at) / Fold change /veh GIMAP4 (11747438_a_at) / RFU KRT8 (11758183_x_at) / Fold change /veh KRT8 (11758183_x_at) / RFU CNN1 (11734310_a_at) / Fold change /veh CNN1 (11734310_a_at) / RFU VPS37D (11726825_at) / Fold change /veh VPS37D (11726825_at) / RFU C10orf10 (11716522_x_at) / Fold change /veh C10orf10 (11716522_x_at) / RFU KIR2DL2 /// KIR2DL4 /// KIR2DL5A /// KIR2DL5B /// KIR2DS1 /// KIR2DS2 /// KIR2DS3 /// KIR2DS4 /// KIR3DL3 /// KIR3DL3 /// KIR3DS1 (11738374_at) / Fold change /veh KIR2DL2 /// KIR2DL4 /// KIR2DL5A /// KIR2DL5B /// KIR2DS1 /// KIR2DS2 /// KIR2DS3 /// KIR2DS4 /// KIR3DL3 /// KIR3DL3 /// KIR3DS1 (11738374_at) / RFU C1QL1 (11718748_at) / Fold change /veh C1QL1 (11718748_at) / RFU TMPRSS4 (11747572_a_at) / Fold change /veh TMPRSS4 (11747572_a_at) / RFU HAMP (11756126_x_at) / Fold change /veh HAMP (11756126_x_at) / RFU RNFT2 (11725882_a_at) / Fold change /veh RNFT2 (11725882_a_at) / RFU NR4A2 (11747474_a_at) / Fold change /veh NR4A2 (11747474_a_at) / RFU ABCC12 (11746883_a_at) / Fold change /veh ABCC12 (11746883_a_at) / RFU TMEM136 (11760407_x_at) / Fold change /veh TMEM136 (11760407_x_at) / RFU CLDN22 /// WWC2 (11732394_at) / Fold change /veh CLDN22 /// WWC2 (11732394_at) / RFU HLA-DPB1 (11760878_x_at) / Fold change /veh HLA-DPB1 (11760878_x_at) / RFU SPINT1 (11716480_a_at) / Fold change /veh SPINT1 (11716480_a_at) / RFU GAP43 (11754022_s_at) / Fold change /veh GAP43 (11754022_s_at) / RFU A4GNT (11735810_at) / Fold change /veh A4GNT (11735810_at) / RFU PRB3 (11715151_x_at) / Fold change /veh PRB3 (11715151_x_at) / RFU TUBB4B (11761932_at) / Fold change /veh TUBB4B (11761932_at) / RFU CAPN14 (11732068_a_at) / Fold change /veh CAPN14 (11732068_a_at) / RFU TMCC2 (11721928_a_at) / Fold change /veh TMCC2 (11721928_a_at) / RFU IRGQ (11745062_a_at) / Fold change /veh IRGQ (11745062_a_at) / RFU FAM174B (11720279_a_at) / Fold change /veh FAM174B (11720279_a_at) / RFU TMPRSS4 (11748680_a_at) / Fold change /veh TMPRSS4 (11748680_a_at) / RFU FAM212B (11763350_a_at) / Fold change /veh FAM212B (11763350_a_at) / RFU PLEKHG5 (11743358_a_at) / Fold change /veh PLEKHG5 (11743358_a_at) / RFU ZSCAN30 (11745921_a_at) / Fold change /veh ZSCAN30 (11745921_a_at) / RFU CMKLR1 (11741424_a_at) / Fold change /veh CMKLR1 (11741424_a_at) / RFU LOC101060620 /// MAPK8IP1 (11723275_at) / Fold change /veh LOC101060620 /// MAPK8IP1 (11723275_at) / RFU SPTSSB (11747773_x_at) / Fold change /veh SPTSSB (11747773_x_at) / RFU PRSS12 (11739890_at) / Fold change /veh PRSS12 (11739890_at) / RFU BIN1 (11741810_x_at) / Fold change /veh BIN1 (11741810_x_at) / RFU WNT11 (11732464_a_at) / Fold change /veh WNT11 (11732464_a_at) / RFU C10orf10 (11716521_a_at) / Fold change /veh C10orf10 (11716521_a_at) / RFU C5orf56 (11738089_at) / Fold change /veh C5orf56 (11738089_at) / RFU CYB561 (11721691_x_at) / Fold change /veh CYB561 (11721691_x_at) / RFU ANKRD19P (11752326_a_at) / Fold change /veh ANKRD19P (11752326_a_at) / RFU OR2T12 /// OR2T33 /// OR2T8 (11738714_s_at) / Fold change /veh OR2T12 /// OR2T33 /// OR2T8 (11738714_s_at) / RFU VCAN (11748164_a_at) / Fold change /veh VCAN (11748164_a_at) / RFU JSRP1 (11732532_at) / Fold change /veh JSRP1 (11732532_at) / RFU KRTAP10-11 (11738290_x_at) / Fold change /veh KRTAP10-11 (11738290_x_at) / RFU MYO3A (11730013_a_at) / Fold change /veh MYO3A (11730013_a_at) / RFU EBF3 (11725865_a_at) / Fold change /veh EBF3 (11725865_a_at) / RFU CAMK2N1 (11719241_x_at) / Fold change /veh CAMK2N1 (11719241_x_at) / RFU C5orf56 (11738088_a_at) / Fold change /veh C5orf56 (11738088_a_at) / RFU OLFML3 (11715873_a_at) / Fold change /veh OLFML3 (11715873_a_at) / RFU LOC100653217 /// NTM (11731650_a_at) / Fold change /veh LOC100653217 /// NTM (11731650_a_at) / RFU MAPK11 (11762145_a_at) / Fold change /veh MAPK11 (11762145_a_at) / RFU FIZ1 (11724087_x_at) / Fold change /veh FIZ1 (11724087_x_at) / RFU OASL (11726364_x_at) / Fold change /veh OASL (11726364_x_at) / RFU SOX15 (11748057_x_at) / Fold change /veh SOX15 (11748057_x_at) / RFU CD79A (11719716_a_at) / Fold change /veh CD79A (11719716_a_at) / RFU HIST1H1D (11736915_at) / Fold change /veh HIST1H1D (11736915_at) / RFU CASKIN2 (11723855_a_at) / Fold change /veh CASKIN2 (11723855_a_at) / RFU LOC730098 (11760151_x_at) / Fold change /veh LOC730098 (11760151_x_at) / RFU OR4N2 (11742367_at) / Fold change /veh OR4N2 (11742367_at) / RFU PRRT2 (11749266_a_at) / Fold change /veh PRRT2 (11749266_a_at) / RFU SNX32 (11753110_a_at) / Fold change /veh SNX32 (11753110_a_at) / RFU CDHR5 (11726645_a_at) / Fold change /veh CDHR5 (11726645_a_at) / RFU RCAN1 (11760418_a_at) / Fold change /veh RCAN1 (11760418_a_at) / RFU FAM167A (11723789_a_at) / Fold change /veh FAM167A (11723789_a_at) / RFU FAM26E (11764081_at) / Fold change /veh FAM26E (11764081_at) / RFU ISYNA1 (11749810_s_at) / Fold change /veh ISYNA1 (11749810_s_at) / RFU ACY1 (11761880_at) / Fold change /veh ACY1 (11761880_at) / RFU 11764098_at / Fold change /veh 11764098_at / RFU SAMD14 (11745864_x_at) / Fold change /veh SAMD14 (11745864_x_at) / RFU NPB (11741838_a_at) / Fold change /veh NPB (11741838_a_at) / RFU TMPRSS6 (11731388_a_at) / Fold change /veh TMPRSS6 (11731388_a_at) / RFU KRTAP10-2 (11738614_at) / Fold change /veh KRTAP10-2 (11738614_at) / RFU ARHGAP8 /// PRR5-ARHGAP8 (11727945_x_at) / Fold change /veh ARHGAP8 /// PRR5-ARHGAP8 (11727945_x_at) / RFU KRTAP5-7 /// NADSYN1 (11734609_at) / Fold change /veh KRTAP5-7 /// NADSYN1 (11734609_at) / RFU RASL12 (11751679_a_at) / Fold change /veh RASL12 (11751679_a_at) / RFU CDKN2B (11736163_a_at) / Fold change /veh CDKN2B (11736163_a_at) / RFU PRF1 (11729649_at) / Fold change /veh PRF1 (11729649_at) / RFU, ZNF638 /// ZNF638-IT1 / Fold change vs veh, ZNF638 /// ZNF638-IT1 / RFU, PANK3 / Fold change vs veh, PANK3 / RFU, SH3YL1 / Fold change vs veh, SH3YL1 / RFU, ZEB2 / Fold change vs veh, ZEB2 / RFU, NRIP1 / Fold change vs veh, NRIP1 / RFU, PTTG1IP / Fold change vs veh, PTTG1IP / RFU, CAPN2 / Fold change vs veh, CAPN2 / RFU, MED14 / Fold change vs veh, MED14 / RFU, SNORA58 / Fold change vs veh, SNORA58 / RFU, C1orf63 / Fold change vs veh, C1orf63 / RFU, LRRFIP1 / Fold change vs veh, LRRFIP1 / RFU, NDUFAF7 / Fold change vs veh, NDUFAF7 / RFU, SLC12A2 / Fold change vs veh, SLC12A2 / RFU, IBTK / Fold change vs veh, IBTK / RFU, ESF1 / Fold change vs veh, ESF1 / Fold change vs veh, TMEM50B / RFU, TAOK1 / Fold change vs veh, TAOK1 / RFU, ACBD3 / Fold change vs veh, ACBD3 / RFU, TMA16 / Fold change vs veh, TMA16 / RFU, RWDD3 / Fold change vs veh, RWDD3 / RFU, BCAT1 / Fold change vs veh, BCAT1 / RFU, EDEM3 / Fold change vs veh, EDEM3 / RFU, TMEM33 / Fold change vs veh, TMEM33 / RFU, WDR75 / Fold change vs veh, WDR75 / RFU, AHCTF1 / Fold change vs veh, AHCTF1 / RFU, TFRC / Fold change vs veh, TFRC / RFU, ZDHHC17 / Fold change vs veh, ZDHHC17 / RFU, NOM1 / Fold change vs veh, NOM1 / RFU, ARL8B / Fold change vs veh, ARL8B / RFU, ZBTB11 / Fold change vs veh, ZBTB11 / RFU, TAMM41 / Fold change vs veh, TAMM41 / RFU, KIAA1704 /// LOC100996395 / Fold change vs veh, KIAA1704 /// LOC100996395 / RFU, ING1 / Fold change vs veh, ING1 / RFU, TRMT61B / Fold change vs veh, TRMT61B / RFU, FUBP3 / Fold change vs veh, FUBP3 / RFU, TP53 / Fold change vs veh, TP53 / RFU, TNKS2 / Fold change vs veh, TNKS2 / RFU, ZFP14 / Fold change vs veh, ZFP14 / RFU, ACTR2 / Fold change vs veh, ACTR2 / RFU, PPP3R1 / Fold change vs veh, PPP3R1 / RFU, PIK3R1 / Fold change vs veh, PIK3R1 / RFU, HNRNPA1 / Fold change vs veh, HNRNPA1 / RFU, RNF170 / Fold change vs veh, RNF170 / RFU, ZNF28 / Fold change vs veh, ZNF28 / RFU, RNGTT / Fold change vs veh, RNGTT / RFU, OGT / Fold change vs veh, OGT / RFU, BRD1 / Fold change vs veh, BRD1 / RFU, MARS / Fold change vs veh, MARS / RFU, ZNF655 / Fold change vs veh, ZNF655 / RFU, FAHD1 / Fold change vs veh, FAHD1 / RFU, BDP1 / Fold change vs veh, BDP1 / RFU, LRRCC1 / Fold change vs veh, LRRCC1 / RFU, ARID1A / Fold change vs veh, ARID1A / RFU, ZNF146 / Fold change vs veh, ZNF146 / RFU, ZNF330 / Fold change vs veh, ZNF330 / RFU, GPN3 / Fold change vs veh, GPN3 / RFU, C9orf123 / Fold change vs veh, C9orf123 / RFU, N4BP2L2 / Fold change vs veh, N4BP2L2 / RFU, ARFIP1 / Fold change vs veh, ARFIP1 / RFU, FAM179B / Fold change vs veh, FAM179B / RFU, BCL10 / Fold change vs veh, BCL10 / RFU, UHRF1BP1L / Fold change vs veh, UHRF1BP1L / RFU, BET1 / Fold change vs veh, BET1 / RFU, CNOT2 / Fold change vs veh, CNOT2 / RFU, ZNF268 / Fold change vs veh, ZNF268 / Fold change vs veh, ZNF507 / RFU, DGCR2 / Fold change vs veh, DGCR2 / RFU, WDSUB1 / Fold change vs veh, WDSUB1 / Fold change vs veh, HSP90B1 /// MIR3652 / RFU, ADSS / Fold change vs veh, ADSS / RFU, GK / Fold change vs veh, GK / RFU, ZNF148 / Fold change vs veh, ZNF148 / RFU, TAF9 / Fold change vs veh, TAF9 / RFU, SLC1A5 / Fold change vs veh, SLC1A5 / RFU, SLMO2 / Fold change vs veh, SLMO2 / RFU, ABCC4 / Fold change vs veh, ABCC4 / RFU, LOC101060439 /// RAP1B / Fold change vs veh, LOC101060439 /// RAP1B / RFU, RFX7 / Fold change vs veh, RFX7 / RFU, GTPBP10 / Fold change vs veh, GTPBP10 / RFU, CNEP1R1 / Fold change vs veh, CNEP1R1 / RFU, BIVM-ERCC5 /// ERCC5 / Fold change vs veh, BIVM-ERCC5 /// ERCC5 / RFU, ILF3 / Fold change vs veh, ILF3 / RFU 11762660_at / Fold change /veh 11762660_at / RFU VCAN (11757783_s_at) / Fold change /veh VCAN (11757783_s_at) / RFU DDX43 (11728927_at) / Fold change /veh DDX43 (11728927_at) / RFU KRT8 (11758188_x_at) / Fold change /veh KRT8 (11758188_x_at) / RFU NKD1 (11759106_at) / Fold change /veh NKD1 (11759106_at) / RFU SRD5A1 (11742802_a_at) / Fold change /veh SRD5A1 (11742802_a_at) / RFU TPSAB1 /// TPSB2 (11721975_s_at) / Fold change /veh TPSAB1 /// TPSB2 (11721975_s_at) / RFU GSTM3 (11746129_a_at) / Fold change /veh GSTM3 (11746129_a_at) / RFU IL23R (11737362_x_at) / Fold change /veh IL23R (11737362_x_at) / RFU TMEM51 (11727254_a_at) / Fold change /veh TMEM51 (11727254_a_at) / RFU PIWIL2 (11732686_x_at) / Fold change /veh PIWIL2 (11732686_x_at) / RFU ORM1 (11744905_x_at) / Fold change /veh ORM1 (11744905_x_at) / RFU CCDC152 (11743942_at) / Fold change /veh CCDC152 (11743942_at) / RFU ECM1 (11717891_a_at) / Fold change /veh ECM1 (11717891_a_at) / RFU IL23R (11748794_a_at) / Fold change /veh IL23R (11748794_a_at) / RFU TNFAIP8L3 (11732012_x_at) / Fold change /veh TNFAIP8L3 (11732012_x_at) / RFU MBOAT4 (11741988_at) / Fold change /veh MBOAT4 (11741988_at) / RFU 11764193_at / Fold change /veh 11764193_at / RFU TMEM53 (11763286_at) / Fold change /veh TMEM53 (11763286_at) / RFU MAGEB2 (11727129_at) / Fold change /veh MAGEB2 (11727129_at) / RFU TMEM200A (11744735_a_at) / Fold change /veh TMEM200A (11744735_a_at) / RFU CCDC152 (11751479_a_at) / Fold change /veh CCDC152 (11751479_a_at) / RFU FAM211A (11726209_a_at) / Fold change /veh FAM211A (11726209_a_at) / RFU RGS16 (11746705_a_at) / Fold change /veh RGS16 (11746705_a_at) / RFU VCAN (11755009_s_at) / Fold change /veh VCAN (11755009_s_at) / RFU RHOB (11743442_s_at) / Fold change /veh RHOB (11743442_s_at) / RFU RGS16 (11720943_a_at) / Fold change /veh RGS16 (11720943_a_at) / RFU RGS16 (11720944_at) / Fold change /veh RGS16 (11720944_at) / RFU, VPS4B / Fold change vs veh, VPS4B / RFU, CREB1 / Fold change vs veh, CREB1 / RFU, DNAJC13 / Fold change vs veh, DNAJC13 / RFU, GNAQ / Fold change vs veh, GNAQ / RFU, CDK5R1 / Fold change vs veh, CDK5R1 / RFU, ZRANB3 / Fold change vs veh, ZRANB3 / RFU, CUL4A / Fold change vs veh, CUL4A / RFU, CCNY / Fold change vs veh, CCNY / RFU, UFL1 / Fold change vs veh, UFL1 / RFU, COG3 / Fold change vs veh, COG3 / RFU, DIAPH2 / Fold change vs veh, DIAPH2 / RFU, SKA2 / Fold change vs veh, SKA2 / RFU, AFF3 / Fold change vs veh, AFF3 / RFU, LMF1 / Fold change vs veh, LMF1 / RFU, IPO11 / Fold change vs veh, IPO11 / RFU, DFFB / Fold change vs veh, DFFB / RFU, FOXP1 / Fold change vs veh, FOXP1 / RFU, CARD8 / Fold change vs veh, CARD8 / RFU, STRN3 / Fold change vs veh, STRN3 / RFU, ADK / Fold change vs veh, ADK / RFU, RASSF2 / Fold change vs veh, RASSF2 / RFU, WIPF1 / Fold change vs veh, WIPF1 / RFU, LARP1B / Fold change vs veh, LARP1B / RFU, RASA1 / Fold change vs veh, RASA1 / RFU, RB1 / Fold change vs veh, RB1 / RFU, PPFIA1 / Fold change vs veh, PPFIA1 / RFU, MAT2A / Fold change vs veh, MAT2A / RFU, CCT5 / Fold change vs veh, CCT5 / RFU, WDR92 / Fold change vs veh, WDR92 / RFU, CUX1 / Fold change vs veh, CUX1 / RFU, TTC7A / Fold change vs veh, TTC7A / RFU, TMEM135 / Fold change vs veh, TMEM135 / RFU, DEPTOR / Fold change vs veh, DEPTOR / RFU, CPM / Fold change vs veh, CPM / RFU, DNAJB6 / Fold change vs veh, DNAJB6 / RFU, CACNA2D3 / Fold change vs veh, CACNA2D3 / RFU, DTX4 / Fold change vs veh, DTX4 / RFU, TFCP2 / Fold change vs veh, TFCP2 / RFU, GMCL1 /// GMCL1P1 / Fold change vs veh, GMCL1 /// GMCL1P1 / RFU, AEBP2 / Fold change vs veh, AEBP2 / RFU, SNHG1 /// SNORD22 /// SNORD25 /// SNORD26 /// SNORD27 /// SNORD28 /// SNORD29 /// SNORD31 / Fold change vs veh, SNHG1 /// SNORD22 /// SNORD25 /// SNORD26 /// SNORD27 /// SNORD28 /// SNORD29 /// SNORD31 / Fold change (Aza/veh), C12orf56 (ProbeSet 11735607_a_at) / Fold change (ACY-1035/veh), C12orf56 (ProbeSet 11735607_a_at) / Fold change (Aza/veh), FGFR1OP (ProbeSet 11751329_s_at) / Fold change (ACY-1035/veh), FGFR1OP (ProbeSet 11751329_s_at) / Fold change (Aza/veh), VPS36 (ProbeSet 11739960_a_at) / Fold change (ACY-1035/veh), VPS36 (ProbeSet 11739960_a_at) / RFU SYPL1 (11715823_x_at) / Fold change /veh SYPL1 (11715823_x_at) / RFU IGFBP7 (11715501_s_at) / Fold change /veh IGFBP7 (11715501_s_at) / RFU REEP3 (11722064_at) / Fold change /veh REEP3 (11722064_at) / RFU IGLL1 (11728026_x_at) / Fold change /veh IGLL1 (11728026_x_at): dose or concentration left out as unconfirmed
Settings: MV-4-11 cells, 48 hours

Nc1ncn([C@@H]2O[C@H](CO)[C@@H](O)[C@H]2O)c(=O)n1 [azacitidine]
RFU TMEM51 (11727254_a_at): 17.35 RFU
